# Reference: patent US12428406B2 (PMV Pharmaceuticals, Inc., priority 2019, dated 2025)
# Target: T1, p53 Y220C (Homo sapiens, UniProt P04637, Y220C)
# T1 construct: The recombinant protein was a truncation mutant containing only amino acids 94-312 of p53; made in house; host or cells: E. coli
# Assay: In vitro DNA binding activity assay (HTRF / TR-FRET): stabilization of p53 Y220C and increase of its DNA binding activity
# Assay type: biochemical
# Details: recombinant His-tagged p53 Y220C DNA binding domain (aa 94-312), biotin-labeled consensus DNA, incubated at 27° C. or 29° C. for 60 min
# Procedure, shortened: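 His-tagged p53 Y220C, E. coli-expressed, binding biotin-labeled consensus DNA measured by HTRF (anti-His-APC, streptavidin-europium). Compounds from 4.5 mM DMSO stocks, 3-fold serial dilutions; incubations at room temperature 15 min, then 20 min. SC150 = concentration raising DNA binding by 50%.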
# T1 sequence (P04637 94-312, change not shown): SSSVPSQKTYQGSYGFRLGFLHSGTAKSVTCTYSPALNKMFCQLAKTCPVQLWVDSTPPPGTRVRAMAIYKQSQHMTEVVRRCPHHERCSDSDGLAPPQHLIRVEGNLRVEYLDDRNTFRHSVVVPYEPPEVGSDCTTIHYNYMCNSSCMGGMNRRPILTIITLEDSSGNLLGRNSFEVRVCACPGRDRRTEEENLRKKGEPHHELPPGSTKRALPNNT
structure (smiles),measurement,value
"COc1cc(C(N)=O)c(F)cc1NCC#Cc1cc2c(N[C@H]3CC[C@H](N4CC5(COC5)C4)CC3)cccc2n1CC(F)(F)F [Compound 273A, 2-fluoro-5-methoxy-4-{[3-(4-{[(1R,4R)-4-{2-oxa-6-azaspiro[3.3]heptan-6-yl}cyclohexyl]amino}-1-(2,2,2-trifluoroethyl)-1H-indol-2-yl)prop-2-yn-1-yl]amino}benzamide]",SC150 (concentration of the compound required to increase the DNA binding activity by 50%),+ (+ = 0 μM ≤ SC150 < 0.05 μM)
